Assay results reported in PMC3511524, “Ant Trail Pheromone Biosynthesis Is Triggered by a Neuropeptide Hormone” (PLoS ONE, 2012).
Where two headings read alike, the source gives them in different places. Ends that are not written are not given here.

Molecular target: T1, SolinPBAN-R (Solenopsis invicta, UniProt L0APC6)
T1 sequence (L0APC6 1-605): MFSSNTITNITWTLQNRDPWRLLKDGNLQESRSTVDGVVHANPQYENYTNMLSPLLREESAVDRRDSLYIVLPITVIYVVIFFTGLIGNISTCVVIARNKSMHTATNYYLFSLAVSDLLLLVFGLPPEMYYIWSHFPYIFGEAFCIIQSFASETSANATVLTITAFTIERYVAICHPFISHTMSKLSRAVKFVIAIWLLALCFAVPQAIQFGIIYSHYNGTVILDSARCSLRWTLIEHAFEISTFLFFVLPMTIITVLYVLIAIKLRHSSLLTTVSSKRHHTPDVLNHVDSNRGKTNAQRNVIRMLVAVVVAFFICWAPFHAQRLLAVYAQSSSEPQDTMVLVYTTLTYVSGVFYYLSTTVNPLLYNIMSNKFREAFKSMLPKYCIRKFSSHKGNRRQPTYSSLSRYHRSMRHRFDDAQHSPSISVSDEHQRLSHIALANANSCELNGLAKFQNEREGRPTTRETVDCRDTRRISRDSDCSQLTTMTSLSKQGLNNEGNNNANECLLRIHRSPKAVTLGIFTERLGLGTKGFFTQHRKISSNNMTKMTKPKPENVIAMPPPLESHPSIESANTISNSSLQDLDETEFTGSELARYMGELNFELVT
Experiment: SolinPBAN-R/peptide binding assay (calcium-based Fluo-4AM fluorescence in Sf9 cells expressing SolinPBAN-R)
Assay type: cell-based
Details: for EC50: SolinPBAN-R expressed in Sf9 cells, Fluo-4AM fluorescence relative to 1 µM ionomycin maximum, read-out: EC50 (half-maximal effective concentration), binding activity to SolinPBAN-R
Procedure: Poly(A) RNA was isolated from whole bodies and heads of S. invicta workers and mature female alates for synthesis cDNA as described previously. Synthesized cDNA was amplified with a degenerate primer set: 5′-[…]-3′ ([…]) and 5′-[…]-3′ ([…]) mostly conserved in TM2 and TM7 domains from insect PBAN-Rs [25]–[27]. PCR was performed for 35 cycles at 95°C for 30 s, 50°C for 30 s, and 72°C for 1 min. The PCR product was directly sequenced by Interdisciplinary Center for Biotechnology Research (ICBR, University of Florida), and then the sequence result was used to design further gene-specific primers to find 5′- and 3′- ends of the fire ant PBAN-R cDNA. 5′-RACE (GeneRacer kit, Invitrogen) was performed using primers 5′-[…]-3′ (from nucleotide 1106) and 5′-[…]-3′ (from nucleotide 588) by the 5′-RACE kit (Invitrogen). 3′-RACE was performed using primers 5′-[…] NTTYCA-3′ (from nucleotide 1199), 5′-[…] […]-3′ (from nucleotide 1336) and 5′-[…]-3′ (from nucleotide 1392). Then PCR products were inserted into a subcloning vector (TOPO-TA, Invitrogen) and confirmed the nucleotides by DNA sequence. Sequences of the receptor DNA and corresponding amino acids were analyzed by Genetyx software ver. 10 (Genetyx Corporation) and PredictProtein software. The ORF of PBAN-R cDNA was amplified using the sense primer of 5′- […] […]-3′ (from nucleotide 255 including the NotI site) and 5′-[…] […]-3′ (from nucleotide 2122 including the XbaI site). The PCR product was ligated into a pIBV5His vector (Invitrogen) for expression in Sf9 cells as described previously.
All peptides used in this study were synthesized or purchased from Sigma Genosys or Peninsula Laboratories. The preparation of cells, peptides, and Fluo-4AM with hymenopteran saline followed a previously described method. Cell fluorescence intensity in a 96-well cell-culture was measured using a plate reader (BMG's NovoStar) equipped with filters (excitation: 485 nm and emission: 520 nm), and one pipetter and two injectors. Fluorescence measurements from each well were taken every 10s. After 30s PBAN or FXPRL peptide (10 µL) was added by pipetter and fluorescent changes were measured for up to 3 min. Then, 1 µM ionomycin (5 µL) was added into the cells to obtain a maximum fluorescence reading. The effect of ligand-exposure was expressed relative to the maximum value obtained with ionomycin. Data were analyzed using Microsoft EXCEL as described previously and measured EC50 values of ligands were determined using GraphPad Prism 4.03 software.
The PBAN/pyrokinin family of peptides and their receptors are currently classified as PK1 or PK2. Diapause Hormone (DH) peptides and their receptors are classified as type PK1. PBAN and other PBAN family peptides, and their receptors are classified as type PK2 [12]. To verify our SolinPBAN-R assignment we determined binding affinities for a number of PK1 ( = DH type) and PK2 ( = PBAN type) neuropeptides to SolinPBAN-R (Table 1). We expressed SolinPBAN-R in Spodoptera frugiperda 9 (Sf9) insect cells, which enabled binding specificity studies by measurement of calcium-based fluorescence intensity (Fig. 3A and Table 1). […] The SolinPBAN/pyrokinin gene is expressed in all life stages in fire ant, from egg to adult; however, the disposition of the four SolinPBAN/pyrokinin peptides in each life stage, as well as the possibility of additional receptors is unknown and currently under investigation.

## GSGEDLSYGDAYEVDEDDHPLFVPRL-NH2 [SolinPBAN]
18 nM vs. 56 nM, Sf9 cells expressing SolinPBAN-R
  EC50 value times less than HelzePBAN: 3 times
N≥4
  EC50: 18 nM

## TGPSASSGLWFGPRL-NH2 [DromePK1]
  EC50: > 1000 nM

## NDVKDGAASGAHSDRLGLWFGPRL-NH2 [HelzePGN24 (DH)]
  EC50: > 1000 nM

## SVPFKPRL-NH2 [DromePK2]
N≥4
  EC50: 163 nM

## LSDDMPATPADQEMYRQDPEQIDSRTKYFSPRL-NH2 [HelzePBAN]
N≥4
  EC50: 56 nM

## TSQDIASGMWFGPRL-NH2 [SolinDH]
N≥4
  EC50: 125 nM
